In patent publication US20260297542A1, “HERBICIDE RESISTANT PLANTS” (SYNGENTA CROP PROTECTION AG, priority 2023, published 2026):
Numbering of substitutions follows the chain as printed. Like-named read-outs stand apart in the source and are kept apart here.

What was measured:
[1] = target: T1, His-TEV-AtPP01 ΔcTP V030 (SEQ ID NO: 374) (Arabidopsis thaliana, UniProt P55826, S305L/Y426V); test: PPO fluorescence IC50 assay, partially purified enzyme; format: biochemical
T1 construct: with cTPs removed; made in house; host or cells: E. coli BL21 (DE3), His GraviTrap, partially purified
T1 sequence (P55826 with tags, fused parts or gaps S305L/Y426V): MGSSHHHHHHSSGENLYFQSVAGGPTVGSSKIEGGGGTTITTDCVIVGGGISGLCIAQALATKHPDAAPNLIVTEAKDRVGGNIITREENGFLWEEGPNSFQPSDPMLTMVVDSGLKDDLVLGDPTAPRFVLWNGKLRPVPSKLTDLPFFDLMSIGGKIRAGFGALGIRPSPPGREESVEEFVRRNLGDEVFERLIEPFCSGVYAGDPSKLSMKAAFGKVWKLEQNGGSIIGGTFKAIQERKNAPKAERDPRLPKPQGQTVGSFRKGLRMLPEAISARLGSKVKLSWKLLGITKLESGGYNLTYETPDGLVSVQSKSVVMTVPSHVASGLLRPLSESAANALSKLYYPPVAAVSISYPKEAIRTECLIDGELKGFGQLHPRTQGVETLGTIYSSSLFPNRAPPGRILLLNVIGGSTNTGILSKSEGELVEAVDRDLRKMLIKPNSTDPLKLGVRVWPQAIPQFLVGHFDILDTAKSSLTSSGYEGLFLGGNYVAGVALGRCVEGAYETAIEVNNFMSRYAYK
Source text: (§1) A pET24 plasmid containing a DNA sequence encoding variants of AtPPO1 derived from Arabidopsis thaliana with cTPs removed and both a 6×His tag and TEV protease cleavage tag added at the N-terminus, codon-optimised for expression in E. coli, and under control of a T7 promoter, was synthesised by Twist Bioscience. The following variants were synthesised: WT AtPPO1 (SEQ ID NO: 370), AtPPO1 L479M (SEQ ID NO: 371), AtPPO1 L479N (SEQ ID NO: 372), AtPPO1 S305L Y426V (SEQ ID NO: 374) and AtPPO1 S305L Y426V L479M (SEQ ID NO: 373). This plasmid was expressed in E. coli BL21 (DE3) with 50 μg/mL kanamycin selection. 10 mL of overnight cultures grown at 37° C. were used to inoculate 1 L AIM (AIM-Terrific Broth Base including Trace elements, Formedium) in 2 L shake flasks. Cultures were grown at 37° C., 200 rpm for 3 hours and then overnight at 26° C. Cells were harvested centrifugation. 5-15 g of cell pellet was lysed in and resuspended in ratio of 1:1.5 in lysis buffer (20 mM Tris pH8, 500 mM sodium chloride, 10% glycerol, 1× complete Protease EDTA-free Inhibitor Tablet (Roche), 10 mM imidazole). The resuspension was sonicated at 75% using 10 cycles of 30 seconds, 40 seconds off. After sonication Triton X-100 was added to the lysates at a final concentration of 0.5%. The lysates were centrifuged at 20,000 rpm for 25 min at 4° C. Cleared lysates were loaded on His GraviTrap (Cytiva) columns, washed with 20 mL of lysis buffer and eluted in elution buffer (20 mM Tris pH8, 500 mM sodium chloride, 10% glycerol, 200 mM imidazole, 0.03% (v/v) Triton X-100). The eluate was desalted on a PD10 column and 2.5-3.2 mL was collected. Protein concentration was measured and calculated using the absorbance at 280 nm. Extracts were diluted 1 in 4 and 10 uL was analysed by SDS PAGE.
(§2) Partially purified Protoporphyrinogen Oxidase enzymes were assayed for activity using fluorescence adapted from the method of Shepherd & Dailey (Anal Biochem. 2005 344(1) 115-121). The assay was performed in black 384 well plates with a clear bottom and the total volume of the reaction mixture was 91 ul. The final assay mixture contained 100 mM K2HPO4 pH7.2, 1 mM Na2EDTA, 5 mM DTT, 20% glycerol (v/v), 0.05% Tween 20 (v/v), 1.1% DMSO (v/v), 1 uM protoporphyrinogen IX and 1.5 nM enzyme. Compounds were dissolved in DMSO at 1 mM and a 4-fold serial dilution carried out to give 8 rates. 1 ul was added to the assay mixture. This gave final compound concentrations of 11, 2.7, 0.69, 0.17, 0.04, 0.01, 0.002, 0.0007 uM. Enzyme and inhibitor were preincubated for 5 minutes prior to starting the reaction with the addition of the substrate. […] IC50s were calculated using GraphPad Prism 7.05 nonlinear regression (Table 6). Each compound was tested in duplicate.

[2] = target: T2, His-TEV-AtPP01 ΔcTP L479M (SEQ ID NO: 371) (Arabidopsis thaliana, UniProt P55826, L479M); test: as above; format: biochemical
T2 construct: with cTPs removed; made in house; host or cells: E. coli BL21 (DE3), His GraviTrap, partially purified
T2 sequence (P55826 with tags, fused parts or gaps L479M): T1 sequence (P55826 with tags, fused parts or gaps S305L/Y426V) with L290S, V411Y, L464M
Source text: as §1, §2

[3] = role: inhibitor, 1 uM protoporphyrinogen IX, <1.0 is below detection limit of assay

Compound | IC50 [1] [nM] | IC50 [2] [nM] | IC50 [1, 3] [nM] | IC50 [2, 3] [nM]
C#CCN1C(=O)COc2cc(F)c(N3C(=O)C4=C(CCCC4)C3=O)cc21 [Flumioxazin, flumioxazin] | 47.2 | 1 |  | 
COC(=O)C(C)ON=Cc1cc(-n2c(=O)cc(C(F)(F)F)n(C)c2=O)c(F)cc1Cl (centres unmarked) [Flufenoximacil, flufenoximacil] |  |  | 717 | 0.7
CC(C)N(C)S(=O)(=O)NC(=O)c1cc(-n2c(=O)cc(C(F)(F)F)n(C)c2=O)c(F)cc1Cl [Herbicide E, saflufenacil] | 547 | 2.4 |  | 
CCOC(=O)COc1cc(-c2nn(C)c(OC(F)F)c2Cl)c(F)cc1Cl [Pyraflufen-ethyl, pyraflufen-ethyl] | 18.6 | 0.7 |  | 
CC(C)Oc1cc(-n2nc(C(C)(C)C)oc2=O)c(Cl)cc1Cl [Oxadiazaon] | 4600 | 11.2 |  | 
C#CCN1C(=O)C(F)(F)Oc2cc(F)c(-n3c(=O)n(C)c(=S)n(C)c3=O)cc21 [Herbicide B, trifludimoxazin] | 1.3 | 0.8 |  | 
C=CCOC(=O)C(C)(C)OC(=O)c1cc(-n2c(=O)cc(C(F)(F)F)n(C)c2=O)ccc1Cl [Butafenacil, butafenacil] | 11 | 0.7 |  | 
C#CCOc1cc(-n2nc3n(c2=O)CCCC3)c(Cl)cc1Cl [Azafenadin] | 117 | 0.7 |  | 
C#CCN(C)c1c(C#N)cnn1-c1nn2c(c1Cl)CCCC2 [Pyraclonil] | 4350 | 2.3 |  | 
CS(=O)(=O)NC(=O)c1cc(Oc2ccc(C(F)(F)F)cc2Cl)ccc1[N+](=O)[O-] [Fomesafen, fomesafen] | 0.7 | 1.2 |  | 
CCOC(=O)[C@]1(C)CC(c2cc(-n3c(=O)n(C)c(=S)n(C)c3=O)c(F)cc2Cl)=NO1 [Herbicide D, ethyl (5S)-3-[2-chloro-5-(3,5-dimethyl-2,6-dioxo-4-thioxo-1,3,5-triazinan-1-yl)-4-fluoro-phenyl]-5-methyl-4H-isoxazole-5-carboxylate] | 269 | 0.6 |  | 
CCOC(=O)C1(C)CC(c2cc(-n3c(=O)cc(C(F)(F)F)n(C)c3=O)c(F)cc2Cl)=NO1 (centres unmarked) [Herbicide C, 3-(2-chloro-4-fluoro-5-(3-methyl-2,6-dioxo-4-trifluoromethyl-3,6-dihydropyrimidin-1(2H)-yl)phenyl)-5-methyl-4,5-dihydroisoxazole-5-carboxylic acid ethyl ester] | 92 | 0.8 |  | 
CCOC(=O)COc1ncccc1Oc1cc(-n2c(=O)cc(C(F)(F)F)n(C)c2=O)c(F)cc1Cl [Herbicide A, epyrifenacil] | 323 | 0.8 |  | 
